Entries after “also recorded” stand apart in the source; their conditions may differ.
Test system: healthy donor PBMCs
Test: IFNγ ELISpot assay with peptide-stimulated healthy donor PBMCs
Assay type: cell-based, human
Protocol: FIG. 10A-D. In vitro validation of predicted neoAgs immunogenicity using ELISpot IFNy assay. A) Schematic of peptide pool, stimulation, and cell culture workflow for ELISpot assays. PBMCs were exposed with the individual peptides from the immunogenic pools in the presence of IL-7 for 3 d, followed by expansion of neoAg-specific T cells in the presence of IL-2. On day 13, expanded cells (10^5 cells per well) were plated onto 96-well ELISpot plate coated with an IFNγ antibody and re-stimulated with the respective peptide for 24 h. IFNy secreting cells were analyzed as spot-forming units (SFUs), and the inventors chose ≥15 SFU produced by peptide stimulated cells over DMSO control cells as an indicator of the peptide immunogenicity. B) Quantification of IFNγ-secreting cells (SFU) obtained from ELISpot assay of 12 neoAg-stimulated PBMCs. ConcA and DMSO served as positive and negative controls. […] C) Selection of 110 predicted MHC-I neoAgs from 3 different categories and percentage of immunogenicity in vitro validation. […] “Most Immunogenic” refers to neoAgs selected from the top 100 prediction list of Most Immunogenic MHC-I neoAgs. “Most recurrent” refers to neoAgs selected from the top 100 prediction list of Most Recurrent MHC-I neoAgs. “Others” refers neoAgs that were predicted to have low immunogenicity and no recurrency. A total of 44 MHC-II neoAgs from 2 different categories were tested. […] “Most Immunogenic” refers to neoAgs selected from the top 100 prediction list of Most Immunogenic MHC-II neoAgs. “Most recurrent” refers to neoAgs selected from the top 100 prediction list of Most Recurrent MHC-II neoAgs. D) pMHC-pentamer staining. Expanded Pan-T cells from the healthy human donor were isolated and stained with WDTC1 neoAg peptide/A*02:01 Pentameric complexes and PerCP-conjugated CD8 antibody followed by flow cytometry analysis. Pan T-cells from healthy human donor PBMC (HLA-A*02:01) were isolated using negative magnetic selection. Isolated Pan T cells were stimulated and expanded with Opto-antigen presenting beads conjugated with WDTC1 neoAg-peptide. Viable Pan-T cells were gated based on FSC and SSC scatter and SYTOX Blue dead cells staining after doublet-exclusion. Flow cytometric plots representing CD8 positive (x-axis) and PE-biotin-pMHC-pentamer positive (y-axis) cells; unstained, unstimulated, and WDTC1 Opto-antigen presenting beads stimulated cells (left to right). The percentage of live CD8+ cells and CD8/WDTC1 neoAg-loaded MHC pentamer positive cells are shown.
FIG. 19A-B. In vitro validation of the pooled predicted neoAgs immunogenicity using ELISpot IFNγ assay. A) Schematic of peptide pool, stimulation, and cell culture workflow for ELISpot assays. All 154 peptides were grouped into 15 peptide pools to stimulate PBMCs from 3 healthy human donors as shown in the illustrations. IFNy secreting cells were analyzed as spot-forming units (SFUs), indicative of immunogenicity. B) Quantification of IFNγ-secreting cells (SFU) obtained from ELISpot assay. Pools 2, 3, 5, 6, 9, and 12 produced at least 15 or higher SFU/10^5 cells from two different PBMCs. […] ConcA and DMSO served as positive and negative controls.
Healthy donor PBMCs were stimulated with 15 peptide pools (Supplementary Table 13) to expand the neoAg-specific CD8^+ T-cells followed by quantitative ELISpot assays (FIG. 19A) to measure immunogenicity. […] To ascertain the immunogenicity of individual peptides within each immunogenic pool. a deconvolution protocol (see Methods) was implemented (FIG. 10A). […] Three percent of MHC-I neoAgs not predicted to be highly immunogenic or recurrent (Others). 5% of the top 100 most immunogenic MHC-II predicted neoags, and 6% of the top 100 most recurrent MHC-II predicted neoags elicited an immunogenic response as assessed by ELISpot assays. Additionally. 18% of all of these elispot-reactive neoags were also predicted from the validation set (FIG. 9C). […]

[1] = IFNγ ELISpot, peptide-stimulated healthy donor PBMCs
[2] = IFNγ secretion in healthy donor PBMCs vs unexposed control cells
[3] = IFNγ ELISpot, peptides marked Tested
[4] = IFNγ ELISpot, only peptides marked Tested
[5] = IFNγ ELISpot, peptide-stimulated healthy donor PBMCs, peptides grouped in 15 pools
[6] = IFNγ ELISpot, healthy donor PBMCs stimulated with peptide pools
[7] = IFNγ ELISpot, only peptides marked Elispot tested = Yes

## KVPFFSALK [compound 169]
[1]
  ELISPOT result (positive Yes/No) for peptides marked Tested: No

## SQNWGSLPL [compound 164]
[1]
  ELISPOT result (positive Yes/No) for peptides marked Tested: No

## AGIGWGASY [compound 160]
[1]
  ELISPOT result (positive Yes/No) for peptides marked Tested: Yes
[2]
  Elispot reactive: Yes

## LSNVAPPAF [compound 168]
[1]
  ELISPOT result (positive Yes/No) for peptides marked Tested: Yes
[2]
  Elispot reactive: Yes

## KLYEAVPQL [compound 159]
[1]
  ELISPOT result (positive Yes/No) for peptides marked Tested: No

## KTYMEMHY [compound 57]
[1]
  ELISPOT result (positive Yes/No) for peptides marked Tested: No
  ELISPOT result for peptides marked Tested with ELISPOT (Yes/No): Yes
[2]
  Elispot reactive: Yes

## LTHPAHQPL [compound 124]
[3]
  Elispot reactive: No

## TQLARFFPI [compound 24]
  experimental validation of the neoAg, Yes/NA: Yes
[4]
  Elispot reactive: Yes
[3]
  Elispot reactive: Yes
[2]
  Elispot reactive: Yes

## 234 (QLARFFPITPPVWHI) [compound 234]
[4]
  Elispot reactive: No
[3]
  Elispot reactive: No

## RLSCAPPPI
[5]
  Elispot reactive: yes

## QTIEERLTW
[5]
  Elispot reactive: yes

## FLMDGFDEL [compound 11]
IFNγ ELISpot, peptide tested
  Elispot reactive: No

## 220 (PKMQVTITLTSPIIR) [compound 220]
[4]
  Elispot reactive: No

## QKKLMLLRLNLRKMC
[5]
  Elispot reactive: yes

## SPAIPPRPL [compound 7]
IFNγ ELISpot, peptide tested
  Elispot reactive: No

## RIPAVLRTEGEPLHT
[5]
  Elispot reactive: yes

## TPMHSLLISPM [compound 211]
IFNγ ELISpot, peptide tested
  Elispot reactive: No

## TSSPRTMSW [compound 120]
[3]
  Elispot reactive: No

## KMMKILMIK [compound 19]
[4]
  Elispot reactive: No

## SPMITRIL [compound 210]
IFNγ ELISpot, peptide tested
  Elispot reactive: No

## YLGTPTWNC [compound 151]
[1]
  ELISPOT result (positive Yes/No) for peptides marked Tested: Yes
[2]
  Elispot reactive: Yes

## RPLCSSLGPL [compound 15]
IFNγ ELISpot, peptide tested
  Elispot reactive: No

## TPRKLVGRAV [compound 162]
[1]
  ELISPOT result (positive Yes/No) for peptides marked Tested: No

## 112 (FLALNQLPQV) [compound 112]
Only neoAgs marked Tested with ELISPOT
  ELISPOT positive: No

## 230 (SLDNVLRTMLRRFAR) [compound 230]
[4]
  Elispot reactive: No

## 311 (KSLVRLSSCVPVALM) [compound 311]
[3]
  Elispot reactive: No
Peptides marked Tested with ELISpot
  ELISpot result (positive yes/no): No

## 236 (FEEIIKNDGALLKKK) [compound 236]
[4]
  Elispot reactive: No

## RLSCAPPPI [compound 138]
[1]
  ELISPOT result (positive Yes/No) for peptides marked Tested: Yes
[2]
  Elispot reactive: Yes

## IQKSWTATTY
[5]
  Elispot reactive: yes

## KLFEKKYSV [compound 6]
IFNγ ELISpot, peptide tested
  Elispot reactive: No

## FQVHFLKSGGLPLVL
[5]
  Elispot reactive: yes

## LEVMLLNMGYRITGL
[6]
  Elispot reactive: yes

## 290 (ANRYFSPNFKVKLYF) [compound 290]
IFNγ ELISpot, healthy donor PBMCs
  ELISpot result (positive response) for peptides tested with ELISpot: No

## RVPAHASTSL [compound 27]
[4]
  Elispot reactive: Yes
[3]
  Elispot reactive: Yes
[2]
  Elispot reactive: Yes

## KVDTHHLQV [compound 133]
[1]
  ELISPOT result (positive Yes/No) for peptides marked Tested: No

## IQKSWTATTY [compound 39]
[4]
  Elispot reactive: Yes
[2]
  Elispot reactive: Yes

## RAWRAGMPL [compound 153]
[1]
  ELISPOT result (positive Yes/No) for peptides marked Tested: No

## MLLELSPAQL [compound 216]
IFNγ ELISpot, peptide tested
  Elispot reactive: No

## 321 (RFPLLMMWRTPMTTR) [compound 321]
[3]
  Elispot reactive: No

## RLDKGNFAGA [compound 215]
IFNγ ELISpot, peptide tested
  Elispot reactive: No

## HTCKVCVSF [compound 176]
[1]
  ELISPOT result (positive Yes/No) for peptides marked Tested: No

## WSWCGTSQTY [compound 136]
[1]
  ELISPOT result (positive Yes/No) for peptides marked Tested: Yes
[2]
  Elispot reactive: Yes

## LSSWFSPTV [compound 139]
[1]
  ELISPOT result (positive Yes/No) for peptides marked Tested: No

## MYFFWPCSL [compound 174]
[1]
  ELISPOT result (positive Yes/No) for peptides marked Tested: No

## RRPLRSWTPR [compound 152]
[1]
  ELISPOT result (positive Yes/No) for peptides marked Tested: No

## 233 (RHVIKVLLGRKVNWH) [compound 233]
[4]
  Elispot reactive: No
[3]
  Elispot reactive: No

## 224 (LINIHHRKNPLLPMR) [compound 224]
[4]
  Elispot reactive: No

## HPPPPCLLLL [compound 217]
IFNγ ELISpot, peptide tested
  Elispot reactive: No

## GMVPLIIPV [compound 116]
[3]
  Elispot reactive: No

## FLADSGIDPV [WDTC1, WDTC1 neoAg peptide, HLA-A*02:01 restricted]
Healthy donor PBMCs, compared to unexposed control cells
  ELISpot IFNγ reactivity (immunogenicity) of individual peptides: most reactive (immunogenic); also recorded: immunogenic

## QTIEERLTW [compound 156]
[1]
  ELISPOT result (positive Yes/No) for peptides marked Tested: Yes
[2]
  Elispot reactive: Yes

## IAFSQLIGM [compound 167]
[1]
  ELISPOT result (positive Yes/No) for peptides marked Tested: No

## TAPVASASPKL [compound 17]
IFNγ ELISpot, peptide tested
  Elispot reactive: No

## 507 (VVHKKRGL) [compound 507]
[7]
  Elispot reactive: No

## ATLVTPPTRY [compound 166]
[1]
  ELISPOT result (positive Yes/No) for peptides marked Tested: No

## CRREYRVTM [compound 135]
[1]
  ELISPOT result (positive Yes/No) for peptides marked Tested: No

## 231 (YLRFIKSLAERTMSV) [compound 231]
[4]
  Elispot reactive: No

## SINVLCVRASLIEKL
[6]
  Elispot reactive: yes

## VPACSHVPM [compound 202]
IFNγ ELISpot, peptide tested
  Elispot reactive: No

## 227 (EDIEFHFSLGWTMLV) [compound 227]
[4]
  Elispot reactive: No

## VMANVLTLNL [compound 157]
[1]
  ELISPOT result (positive Yes/No) for peptides marked Tested: Yes
[2]
  Elispot reactive: Yes

## 329 (EIQLTMNDSKHKLES) [compound 329]
[3]
  Elispot reactive: No

## VSNIAQAPLY [compound 172]
[1]
  ELISPOT result (positive Yes/No) for peptides marked Tested: No

## KPLWRKSPL [compound 137]
[1]
  ELISPOT result (positive Yes/No) for peptides marked Tested: No

## ELLNPVTMNK [compound 207]
IFNγ ELISpot, peptide tested
  Elispot reactive: No

## RPRMRAASPL [compound 13]
IFNγ ELISpot, peptide tested
  Elispot reactive: No

## SLVRLSSCVPV [compound 4]
IFNγ ELISpot, peptide tested
  Elispot reactive: No

## IAQPSTSSL [compound 28]
[4]
  Elispot reactive: No
[3]
  Elispot reactive: No

## SWMGGLHSFY [compound 121]
[3]
  Elispot reactive: No

## SQVWTAATLR [compound 115]
[3]
  Elispot reactive: No

## LLNPVTMNKA
[5]
  Elispot reactive: yes

## RSAFPSRSL [compound 126]
[3]
  Elispot reactive: No
[7]
  Elispot reactive: No

## TPMHSLLIS [compound 212]
IFNγ ELISpot, peptide tested
  Elispot reactive: No

## SELLNPVTMNK [compound 205]
IFNγ ELISpot, peptide tested
  Elispot reactive: No

## SQKNITPAI [compound 122]
[3]
  Elispot reactive: No

## 318 (LRGGVIQSTRRRRRA) [compound 318]
[3]
  Elispot reactive: No

## VLEDTLLKI [compound 158]
[1]
  ELISPOT result (positive Yes/No) for peptides marked Tested: Yes
[2]
  Elispot reactive: Yes

## FLWNSLLAV [compound 12]
IFNγ ELISpot, peptide tested
  Elispot reactive: No

## 324 (FGILNVLEFSSDRKK) [compound 324]
[3]
  Elispot reactive: No

## 238 (TKFITYRSKKLIQES) [compound 238]
[4]
  Elispot reactive: No

## LSSPFREQM [compound 38]
[4]
  Elispot reactive: No
[1]
  ELISPOT result (positive Yes/No) for peptides marked Tested: No

## WLPKMPPFV
[5]
  Elispot reactive: yes

## FLIDDNFKV
[5]
  Elispot reactive: yes

## HNVQGFHPY [compound 178]
[1]
  ELISPOT result (positive Yes/No) for peptides marked Tested: No

## RPVRGRGSL [compound 14]
IFNγ ELISpot, peptide tested
  Elispot reactive: No

## 320 (EDMQEVVVHKKRGLF) [compound 320]
[3]
  Elispot reactive: No
